Measured values taken from US11629171B2, “Beta-hairpin peptidomimetics” (POLYPHOR AG, priority 2017, dated 2023).
Converted amounts (≈) assume the structure as drawn. Where a SMILES comes first, the peptide text is derived from it. Bridges are numbered along the chain shown (N, C = ends). Roman numbers before positions name the chains, in order. [ ]: non-standard residue; d: D form. The star is where a group is joined. Tle = CC(C)(C)[C@H](N)C(=O)O; Hiv = CC(C)[C@H](O)C(=O)O; Isovaleryl = CC(C)CC(=O)*; dDab = NCC[C@@H](N)C(=O)O; Dab = NCC[C@H](N)C(=O)O; Dap = NC[C@H](N)C(=O)O; NHCH2CH2OH = OCCN*

Assays:
Assay type in all cases: cell-based
[1] = tested on: Acinetobacter baumannii DSM 30008; conditions: DSM 30008
How it was run: (§1)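 Cation-adjusted MH-II broth, 0.002% polysorbate 80, inoculum near 10^6 CFU/mL. MIC read visually after 18-20 h, 35° C; units μg/mL.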

[2] = tested on: Klebsiella pneumoniae 968733; conditions: 968733
How it was run: as §1

[3] = tested on: Acinetobacter baumannii 872842; conditions: 872842
How it was run: as §1

[4] = tested on: Klebsiella pneumoniae SSI #3010; conditions: SSI #3010
How it was run: as §1

[5] = tested on: Pseudomonas aeruginosa ATCC 27853; conditions: ATCC 27853
How it was run: as §1

[6] = tested on: Enterobacter cloacae 848840; conditions: 848840
How it was run: as §1

[7] = tested on: Escherichia coli ATCC 25922; conditions: ATCC 25922
How it was run: as §1

Escherichia coli 926415 = conditions: 926415
How it was run: as §1

[8] = tested on: human red blood cells (hRBC); assay: Hemolysis; conditions: red cells of human, 1 h, 200
How it was run: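 Washed fresh hRBC (20% v/v) were incubated with peptides at 200 μg/mL for 1 h at 37° C with shaking at 300 rpm. Supernatant OD540 was read after centrifugation and dilution, blank-corrected, and expressed as percent of the 2% Triton X-100 (100% lysis) control; PBS with 10% water gave 0%.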

Compound | Acinetobacter baumannii DSM 30008 MIC [1] [µg/mL] | MIC [2] [µg/mL] | MIC [3] [µg/mL] | Klebsiella pneumoniae SSI #3010 MIC [4] [µg/mL] | Pseudomonas aeruginosa ATCC 27853 MIC [5] [µg/mL] | MIC [6] [µg/mL] | Escherichia coli ATCC 25922 MIC [7] [µg/mL] | MIC (Escherichia coli 926415) [µg/mL] | Hemolysis at 200 μg/mL [8] [%] | MIC [1] [µg/mL] | MIC [4] [µg/mL] | MIC [5] [µg/mL] | MIC [7] [µg/mL]
CC(C)C[C@@H]1NC(=O)[C@@H](CC(C)C)NC(=O)[C@H](CCN)NC(=O)[C@@H](NC(=O)[C@H](CN)NC(=O)[C@@H](NC(=O)[C@H](CCN)NC(=O)CC[C@@H]2NC(=O)[C@H](CO)NC(=O)[C@H](Cc3ccc(O)cc3)NC(=O)[C@@H](NC(=O)[C@@H](O)C(C)C)CSSC[C@@H](C(=O)N[C@@H](CO)C(=O)N[C@@H](CC(=O)O)C(N)=O)NC(=O)[C@H](C(C)(C)C)NC(=O)[C@H](CO)NC(=O)[C@H](Cc3c[nH]c4ccccc34)NC(=O)[C@H](CCN)NC(=O)[C@@H](CCN)NC2=O)[C@@H](C)O)CCNC(=O)[C@H]([C@@H](C)O)NC(=O)[C@H](CCN)NC(=O)[C@H](CCN)NC1=O [Ex. 372] (I: H-[Hiv]CYSE[dDab][Dab]WS[Tle]CSD-NH2 / II: [Dab]T[Dap][Dab][Dab][dL]L[Dab][Dab]T; disulfide I:2-I:11; amide I:5-II:N; lactam II:4-II:C) | 0.03125 | 0.25 (≈ 0.101 µM) | 0.125 (≈ 0.0503 µM) | 0.0625 | 0.0625 | 0.25 (≈ 0.101 µM) | 0.0625 | 0.125 (≈ 0.0503 µM) | <1 |  |  |  | 
CC(=O)N[C@H](C(=O)N[C@H]1CSSC[C@@H](C(=O)N[C@@H](CO)C(=O)N[C@@H](CC(N)=O)C(N)=O)NC(=O)[C@H](C(C)C)NC(=O)[C@H](CO)NC(=O)[C@H](Cc2c[nH]c3ccccc23)NC(=O)[C@H](CCN)NC(=O)[C@@H](CCN)NC(=O)[C@H](CCC(=O)N[C@@H](CCN)C(=O)N[C@H](C(=O)N[C@@H](CN)C(=O)N[C@H]2CCNC(=O)[C@H]([C@@H](C)O)NC(=O)[C@H](CCN)NC(=O)[C@H](CCN)NC(=O)[C@H](CC(C)C)NC(=O)[C@@H](CC(C)C)NC(=O)[C@H](CCN)NC2=O)[C@@H](C)O)NC(=O)[C@H](CO)NC(=O)[C@H](Cc2ccc(O)cc2)NC1=O)C(C)C [Ex. 373] (I: Ac-VCYSE[dDab][Dab]WSVCSN-NH2 / II: [Dab]T[Dap][Dab][Dab][dL]L[Dab][Dab]T; disulfide I:2-I:11; amide I:5-II:N; lactam II:4-II:C) | 0.03125 | 0.125 (≈ 0.0497 µM) | 0.0625 (≈ 0.0249 µM) | 0.0625 | 0.0625 | 0.25 (≈ 0.0995 µM) | 0.0625 | 0.125 (≈ 0.0497 µM) | <1 |  |  |  | 
CC(=O)N[C@H](C(=O)N[C@H]1CSSC[C@@H](C(=O)N[C@@H](CO)C(=O)N[C@H](CC(=O)O)C(N)=O)NC(=O)[C@H](C(C)C)NC(=O)[C@H](CO)NC(=O)[C@H](Cc2c[nH]c3ccccc23)NC(=O)[C@H](CO)NC(=O)[C@@H](CCN)NC(=O)[C@H](CCC(=O)N[C@@H](CCN)C(=O)N[C@H](C(=O)N[C@@H](CN)C(=O)N[C@H]2CCNC(=O)[C@H]([C@@H](C)O)NC(=O)[C@H](CCN)NC(=O)[C@H](CCN)NC(=O)[C@H](CC(C)C)NC(=O)[C@@H](CC(C)C)NC(=O)[C@H](CCN)NC2=O)[C@@H](C)O)NC(=O)[C@H](CCN)NC(=O)[C@H](Cc2ccc(O)cc2)NC1=O)C(C)C [Ex. 374] (I: Ac-VCY[Dab]E[dDab]SWSVCS[dD]-NH2 / II: [Dab]T[Dap][Dab][Dab][dL]L[Dab][Dab]T; disulfide I:2-I:11; amide I:5-II:N; lactam II:4-II:C) | 0.0625 | 1 (≈ 0.398 µM) | 0.25 (≈ 0.0994 µM) | 0.0625 | 0.125 | 0.25 (≈ 0.0994 µM) | 0.0625 | 0.5 (≈ 0.199 µM) | <1 |  |  |  | 
CC(=O)N[C@H](C(=O)N[C@H]1CSSC[C@@H](C(=O)NCC(=O)N[C@H](CO)C(N)=O)NC(=O)[C@H](C(C)C)NC(=O)[C@H](CO)NC(=O)[C@H](Cc2c[nH]c3ccccc23)NC(=O)[C@H](CO)NC(=O)[C@@H](CCN)NC(=O)[C@H](CCC(=O)N[C@@H](CCN)C(=O)N[C@H](C(=O)N[C@@H](CN)C(=O)N[C@H]2CCNC(=O)[C@H]([C@@H](C)O)NC(=O)[C@H](CCN)NC(=O)[C@H](CCN)NC(=O)[C@H](CC(C)C)NC(=O)[C@@H](CC(C)C)NC(=O)[C@H](CCN)NC2=O)[C@@H](C)O)NC(=O)[C@H](CCN)NC(=O)[C@H](Cc2ccc(O)cc2)NC1=O)C(C)C [Ex. 377] (I: Ac-VCY[Dab]E[dDab]SWSVCG[dS]-NH2 / II: [Dab]T[Dap][Dab][Dab][dL]L[Dab][Dab]T; disulfide I:2-I:11; amide I:5-II:N; lactam II:4-II:C) | 0.01562 | 0.0625 (≈ 0.0254 µM) | 0.0625 (≈ 0.0254 µM) | 0.03125 | 0.0625 | 0.0625 (≈ 0.0254 µM) | 0.01562 | 0.125 (≈ 0.0509 µM) | <1 |  |  |  | 
CC(=O)N[C@H](C(=O)N[C@H]1CSSC[C@@H](C(=O)N[C@@H](CO)C(=O)N[C@H](C)C(N)=O)NC(=O)[C@H](C(C)C)NC(=O)[C@H](CO)NC(=O)[C@H](Cc2c[nH]c3ccccc23)NC(=O)[C@H](CO)NC(=O)[C@@H](CCN)NC(=O)[C@H](CCC(=O)N[C@@H](CCN)C(=O)N[C@H](C(=O)N[C@@H](CN)C(=O)N[C@H]2CCNC(=O)[C@H]([C@@H](C)O)NC(=O)[C@H](CCN)NC(=O)[C@H](CCN)NC(=O)[C@H](CC(C)C)NC(=O)[C@@H](CC(C)C)NC(=O)[C@H](CCN)NC2=O)[C@@H](C)O)NC(=O)[C@H](CCN)NC(=O)[C@H](Cc2ccc(O)cc2)NC1=O)C(C)C [Ex. 378] (I: Ac-VCY[Dab]E[dDab]SWSVCS[dA]-NH2 / II: [Dab]T[Dap][Dab][Dab][dL]L[Dab][Dab]T; disulfide I:2-I:11; amide I:5-II:N; lactam II:4-II:C) | 0.03125 | 0.125 (≈ 0.0506 µM) | 0.0625 (≈ 0.0253 µM) | 0.0625 | 0.0625 | 0.0625 (≈ 0.0253 µM) | 0.0625 | 0.0625 (≈ 0.0253 µM) | <1 |  |  |  | 
CC(=O)N[C@H](C(=O)N[C@H]1CSSC[C@@H](C(=O)O)NC(=O)[C@H](C(C)C)NC(=O)[C@H](CO)NC(=O)[C@H](Cc2c[nH]c3ccccc23)NC(=O)[C@H](CO)NC(=O)[C@@H](CCN)NC(=O)[C@H](CCC(=O)N[C@@H](CCN)C(=O)N[C@H](C(=O)N[C@@H](CN)C(=O)N[C@H]2CCNC(=O)[C@H]([C@@H](C)O)NC(=O)[C@H](CCN)NC(=O)[C@H](CCN)NC(=O)[C@H](CC(C)C)NC(=O)[C@@H](CC(C)C)NC(=O)[C@H](CCN)NC2=O)[C@@H](C)O)NC(=O)[C@H](CCN)NC(=O)[C@H](Cc2ccc(O)cc2)NC1=O)C(C)C [Ex. 384] (I: Ac-VCY[Dab]E[dDab]SWSVC-OH / II: [Dab]T[Dap][Dab][Dab][dL]L[Dab][Dab]T; disulfide I:2-I:11; amide I:5-II:N; lactam II:4-II:C) | 1 | >8 | 2 (≈ 0.865 µM) | 0.25 | 0.5 | 2 (≈ 0.865 µM) | 0.125 | 4 (≈ 1.73 µM) | <1 |  |  |  | 
CC(C)CC(=O)N[C@H]1CSSC[C@@H](C(=O)NCCO)NC(=O)[C@H](C(C)(C)C)NC(=O)[C@H](CO)NC(=O)[C@H](Cc2c[nH]c3ccccc23)NC(=O)[C@H]([C@@H](C)O)NC(=O)[C@@H](CCN)NC(=O)[C@H](CCC(=O)N[C@@H](CCN)C(=O)N[C@H](C(=O)N[C@@H](CCN)C(=O)N[C@H]2CCNC(=O)[C@H]([C@@H](C)O)NC(=O)[C@H](CCN)NC(=O)[C@H](CCN)NC(=O)[C@H](CC(C)C)NC(=O)[C@@H](CC(C)C)NC(=O)[C@H](CCN)NC2=O)[C@@H](C)O)NC(=O)[C@H](CN)NC(=O)[C@H](Cc2ccc(O)cc2)NC1=O [Example 1] (I: Isovaleryl-CY[Dap]E[dDab]TWS[Tle]C-NHCH2CH2OH / II: [Dab]T[Dab][Dab][Dab][dL]L[Dab][Dab]T; disulfide I:1-I:10; amide I:4-II:N; lactam II:4-II:C) |  | 2 (≈ 0.86 µM) | 1 (≈ 0.43 µM) |  |  | 4 (≈ 1.72 µM) |  | 1 (≈ 0.43 µM) | <1 | 0.125 (≈ 0.0537 µM) | 0.5 (≈ 0.215 µM) | 0.125 (≈ 0.0537 µM) | 0.125 (≈ 0.0537 µM)
